# According to US20110038948A1, “Methods of Reducing the Production of Reactive Oxygen Species and Methods of Screening or Identifying Compounds and Compositions that Reduce the Production of Reactive Oxygen Species” (UNIVERSITY OF TENNESSEE RESEARCH FOUNDATION, priority 2005, published 2011):
# Key:
# Assay type in all cases: cell-based, mouse
# [1] = system: 3T3-L1 adipocytes; test: Intracellular ROS generation in cultured adipocytes (H2-DCFDA); details: compound plus glucose 30 mmol/L, 48 hours
# Description: 3T3-L1 preadipocytes were incubated at a density of 8000 cells/cm^2 (10 cm^2 dish) and grown in Dulbecco's modified Eagle's medium (DMEM) containing 10% FBS and antibiotics (adipocyte medium) at 37° C. in 5% CO2 in air. Confluent preadipocytes were induced to differentiate with a standard differentiation medium consisting of DMEM-F10 (1:1, vol/vol) medium supplemented with 1% FBS, 1 μM dexamethasone, IBMX (0.5 mM) and antibiotics (1% Penicillin-Streptomycin). Preadipocytes were maintained in this differentiation medium for 3 days and subsequently cultured in adipocyte medium. Cultures were re-fed every 2-3 days to allow 90% of cells to reach full differentiation before conducting chemical treatment. Chemicals were freshly diluted in adipocyte medium before treatment. Cells were washed with fresh adipocyte medium, re-fed with medium containing the different treatments, and incubated at 37° C. in 5% CO2 in air before analysis. Cell viability was measured via trypan blue exclusion. […] Cells were loaded with H2-DCFDA (2 μmol/L) 30 minute before the end of the incubation period (48 h). After washing twice with PBS, cells were scraped and disrupted by sonication on ice (20 s). Fluorescence (emission 543 nm or 527 nm) and DNA content were then measured as described previously. The intensity of fluorescence was expressed as arbitrary units per ng DNA.
# [2] = system: NADPH oxidase; test: NADPH oxidase expression in cultured adipocytes; details: glucose 30 mmol/L alone or plus compound, 48 hours
# Description: (§1) 3T3-L1 preadipocytes were incubated at a density of 8000 cells/cm^2 (10 cm^2 dish) and grown in Dulbecco's modified Eagle's medium (DMEM) containing 10% FBS and antibiotics (adipocyte medium) at 37° C. in 5% CO2 in air. Confluent preadipocytes were induced to differentiate with a standard differentiation medium consisting of DMEM-F10 (1:1, vol/vol) medium supplemented with 1% FBS, 1 μM dexamethasone, IBMX (0.5 mM) and antibiotics (1% Penicillin-Streptomycin). Preadipocytes were maintained in this differentiation medium for 3 days and subsequently cultured in adipocyte medium. Cultures were re-fed every 2-3 days to allow 90% of cells to reach full differentiation before conducting chemical treatment. Chemicals were freshly diluted in adipocyte medium before treatment. Cells were washed with fresh adipocyte medium, re-fed with medium containing the different treatments, and incubated at 37° C. in 5% CO2 in air before analysis. Cell viability was measured via trypan blue exclusion. Adipocyte 18s, cyclin A, NADPH oxidase, and UCP2 were quantitatively measured using a Smart Cycler Real Time PCR System (Cepheid, Sunnyvale, Calif.) with a TaqMan 1000 Core Reagent Kit (Applied Biosystems, Branchburg, N.J.). The primers and probe sets were ordered from Applied Biosystems TaqMan® Assays-on-Demand™ Gene Expression primers and probe set collection according to manufacture's instruction. Pooled adipocyte total RNA was serial-diluted in the range of 1.5625-25 ng and used to establish a standard curve; total RNAs for unknown samples were also diluted in this range. Reactions of quantitative RT-PCR for standards and unknown samples were also performed according to the instructions of Smart Cycler System (Cepheid, Sunnyvale, Calif.) and TaqMan Real Time PCR Core Kit (Applied Biosystems, Branchburg, N.J.). The mRNA quantitation for each sample was further normalized using the corresponding 18s quantitation.
# [3] = system: cyclin A; test: Cyclin A expression in cultured adipocytes; details: compound plus glucose 30 mmol/L, 48 hours
# Description: as §1, with “Cells were washed with fresh adipocyte medium, re-fed with medium containing the different treatments, and incubated at 37° C. in 5% CO2 in air before analysis.” left out, “The primers and probe sets were ordered from Applied Biosystems TaqMan® Assays-on-Demand™ Gene Expression primers and probe set collection according to manufacture's instruction. Pooled adipocyte total RNA was serial-diluted in the range of 1.5625-25 ng and used to establish a standard curve; total RNAs for unknown samples were also diluted in this range.” left out
structure (smiles),measurement,setting,value
"C=C1/C(=C\C=C2/CCC[C@]3(C)[C@@H]([C@H](C)CCCC(C)(C)O)CC[C@@H]23)C[C@@H](O)C[C@@H]1O [calcitriol, 1,25-(OH)2-D3]",effect on high glucose induced ROS production,[1],greater stimulation of ROS production than either glucose alone or glucose plus GDP
same,effect on NADPH oxidase expression,[2],stimulated
same,effect on glucose stimulated cyclin A expression,[3],augmented
